Molecules are shown by their SMILES. Where two headings read alike, the source gives them in different places.

The assay has as its system 5-HT levels in ventral hippocampus. The conditions noted are these: for effects on hippocampal 5-HT levels: amoxapine alone, rat ventral hippocampus microdialysis. As to the method:
Male albino rats of a Wistar-derived strain (285-320 g; Harlan, Zeist, The Netherlands) were used for the experiments. Upon surgery, rats were housed individually in plastic cages (35×35×40 cm), and had free access to food and water. Animals were kept on a 12 h light schedule (light on 7:00 a.m.). The experiments are concordant with the declarations of Helsinki and were approved by the animal care committee of the faculty of mathematics and natural science of the University of Groningen.
Preceding surgery rats were anaesthetised using isoflurane (O2/N2O; 300/300 ml/min). Lidocaine-HCl, 10% (m/v) was used for local anaesthesia.
Rats were allowed to recover for at least 24 h. […] 15 minute microdialysis samples were collected in HPLC vials containing 7.5 μl 0.02 M acetic acid for serotonin analysis.
Twenty-μl microdialysate samples were injected via an autoinjector (CMA/200 refrigerated microsampler, CMA, Sweden) onto a 100×2.0 mm C18 Hypersil 3 μm column (Bester, Amstelveen, the Netherlands) and separated with a mobile phase consisting of 5 g/L di-ammoniumsulfate, 500 mg/L EDTA, 50 mg/L heptane sulphonic acid, 4% methanol v/v, and 30 μl/L of triethylamine, pH 4.65 at a flow of 0.4 ml/min (Shimadzu LC-10 AD). 5-HT was detected amperometrically at a glassy carbon electrode at 500 mV vs Ag/AgCl (Antec Leyden, Leiden, The Netherlands). The detection limit was 0.5 fmol 5-HT per 20 μl sample (signal to noise ratio 3).
Four consecutive microdialysis samples with less then 20% variation were taken as control and set at 100%. […] Treatments were compared versus controls using two way analysis of variance (ANOVA) for repeated measurements, followed by Student Newman Keuls test. […] Level of significance level was set at p<0.05.

Regarding `Clc1ccc2c(c1)C(N1CCNCC1)=Nc1ccccc1O2` [amoxapine], the “effects on hippocampal 5-HT levels” value by setting is: (1 μmol/kg s.c., P=0.08) “did not induce any significant effects”; (10 μmol/kg s.c., P=0.47) “did not induce any significant effects”. The “response in the 5-HT microdialysis model” value (summary statement, dose not stated, compared to the serotonin reuptake inhibitor alone) is reported as “no significant effect”.

For the origin of these results see US20080167290A1, “Combination of a Serotonin Reuptake Inhibitor and Amoxapine” (H. Lundbeck A/S, priority 2003, published 2008).
